The values below come from patent publication US12551449B2, “Tunable degradation in hydrogel microparticles” (LIKARDA, INC., priority 2019, dated 2026).

For data set [1] the following is noted: thiol group(s); cited from earlier work.
Data set [2] deals with canine islets. Kind of data set: Cytotoxicity of UV light and photoinitiator on canine islets. As to conditions: 10 minutes UV ~40 mW/cm^2. In kind it is cell-based. Here is the method: (§1) Dead cells were identified using propidium iodine staining and fluorescence microscopy. Fluorescence micrographs were captured with a Cytation 5 Imaging Multi-Mode Reader (Biotek Instruments, Inc, 531/647 nm ex/em). Cell death was quantified by calculating the ratio of red (dead) pixels to total islet pixels using Adobe Photoshop. Twenty-five individual islets were analyzed per group and were distinguished from non-islet tissues via dithizone staining. Results are reported as the average viable cell fraction and normalized to islet viability of the matched, untreated controls (i.e., islet from the same batch in culture medium).
For PEGDA and methacrylated hyaluronic acid (MeHA) microparticles, photocrosslinking was utilized. Thus, studies examining the toxicity of ultraviolet light (UV) and the photoinitiator were first conducted. Canine islets were suspended in Dulbecco's phosphate buffered saline (DPBS) containing 0, 0.025 or 0.05% (w/v) of the photoinitiator, IRGACURE® 2959. Approximately 50 IEQ were loaded into wells of a 24-well plate and irradiated with long-wave ultraviolet (UV) light for 3, 5 or 10 minutes. […] Cell death was evaluated via propidium iodide staining and quantified as described in the previous section.

Data set [3] relates to canine islets. Kind of data set: Cytotoxicity of calcium (CSS component) on canine islets, propidium iodide staining. Type of data set: cell-based. Here is the method:
The cytotoxicity of calcium, a component in the CSS process, was tested by exposing canine islets to solutions containing either 100 mM or 200 mM calcium chloride, 10 mM HEPES buffer, and 20% PEGDA, MW 3,400 Da (Laysan Bio, Inc.) for 5, 10 or 15 minutes. A group was also exposed to 100 mM calcium chloride without PEGDA to evaluate the effect of calcium alone. Islets were suspended at approximately 5,000 IEQ/mL in the test solutions to emulate the high cell loading density associated with the encapsulation process. After calcium exposure, islets were washed twice with supplemented CMRL 1066 islet media and then incubated at 37° C. and 5% CO2 for 3 hours prior to assessment.
as §1

As for `SCCSCCS` [2,2'-thiodiethanethiol], the pKa in data set [1] was 9.4-9.5.

On to `SCCOCCS` [2-mercaptoethyl ether], for which the pKa in data set [1] was 10.5-10.7.

On to `N[C@H](CS)CCS` [(S)-2 Aminobutane 1,4 dithiol], for which the pKa in data set [1] is 8.5.

Turning to `O=C(CCS)OCCOC(=O)CCS` [Glycol di(3mercaptopropionate)], the pKa in data set [1] is 9.4-9.5.

For the molecule `O=C(CS)OCCOC(=O)CS` [Glycol dimercaptoacetate], the pKa in data set [1] was 7.9-8.1.

For `SCCOCCOCCOCCOCCOCCS` [Hexaethhylene glycol dithiol], the pKa in data set [1] is recorded as 10.5-10.7.

For `CC(C)(O)C(=O)c1ccc(OCCO)cc1` [IRGACURE® 2959, 2-Hydroxy-4′-(2-hydroxyethoxy)-2-methylpropiophenone], the viable cell fraction in the data set with canine islets [2] (0.025% (w/v)) worked out at 94.5%; in the data set on canine islets [2] (0.05% (w/v)), 87.2%.

`[Ca+2].[Cl-].[Cl-]` [calcium, calcium chloride]: in the data set on canine islets [3] (100 mM calcium in concentrated, viscous PEGDA solution), the “exposure time tolerated by islets” value was “at least 10 minutes”. Also, the “viability compared to controls” value in the data set with canine islets [3] (100 mM calcium without PEGDA, 15 minutes) was 97.6%. The cytotoxicity to islets entry in the data set with canine islets [3] (200 mM calcium) is listed as “rapidly cytotoxic”. For the same molecule, the “viability compared to matched, untreated controls” value in the data set on canine islets [3] (100 or 200 mM calcium with PEGDA or 100 mM calcium alone, 5 minutes exposure) is on record as “above 97.5%”.

On to Glyceryl dithioglycolate, for which, in data set [1], the pKa is 7.9-8.1.
